The subject of test [1] is ribosomes translating ErmBL mRNA. The test can be described thus: Toeprinting on ErmBL mRNA templates (Figs. 4a and 5c). Conditions: 100 µM. The test is classed as biochemical, E. coli. On the procedure: Toeprinting reactions for Figs. 4a and 5c were performed as described previously. Briefly, reactions were performed with 5 μl of PURExpress in vitro protein synthesis system. The reactions contained 0.1 pmol of the respective DNA template (Supplementary Table 2) and were supplemented with retapamulin, erythromycin, mupirocin or PamB2 as specified. The transcription–translation reactions were incubated 20 min at 37 °C. Subsequently, reverse transcription was performed for 10 min at 37 °C using AMV RT and the radiolabeled NV*1-primer. Reactions were stopped by the addition of 1 µl of 10 M NaOH and then neutralized with 0.8 µl of concentrated HCl. Subsequently, 200 µl of the stop buffer (0.3 M sodium acetate (pH 5.5), 5 mM EDTA and 0.5% SDS) was added and phenol extraction was performed. The obtained complementary DNA was precipitated in ethanol for subsequent gel electrophoresis.

Another test concerns E. coli 70S ribosome. The test can be described thus: Cryo-EM of PamB2-stalled ribosome complexes. The test is classed as binding. Conditions: 50 µM. On the procedure:
PamB2-ribosome complexes were generated by in vitro transcription–translation reactions in PURExpress in vitro protein synthesis system (New England Biolabs) with the same reaction mix as described earlier in the toeprinting assays. Complex formation reactions were carried out on MLIFstop toeprint DNA template in a 48 µl of reaction in presence of 50 µM PamB2. The reaction was incubated for 15 min at 37 °C. The reaction volume was then split: 42 µl were used for complex generation and 6 µl were used for toeprinting analysis. Ribosome complexes were isolated by centrifugation in 900 µl of sucrose gradient buffer (containing 40% sucrose, 50 mM HEPES-KOH, pH 7.4, 100 mM KOAc, 25 mM Mg(OAc)2 and 6 mM 2-mercaptoethanol) for 3 h at 4 °C with 80,000g in a Optima Max-XP Tabletop Ultracentrifuge with a TLA 120.2 rotor. The pelleted complex was resuspended in Hico buffer (50 mM HEPES-KOH, pH 7.4, 100 mM KOAc, 25 mM Mg(OAc)2) supplemented with 50 µM PamB2, then incubated for 15 min at 37 °C.
Sample volumes of 3.5 μl (eight at an optical density of 260 nm per milliliter) were applied to grids (Quantifoil, Cu, 300 mesh, R3/3 with 3-nm carbon) that had been freshly glow-discharged using a GloQube (Quorum Technologies) in negative charge mode at 25 mA for 90 s. Sample vitrification was performed using an ethane-propane mixture (37:63) in a Vitrobot Mark IV (Thermo Fisher Scientific), the chamber was set to 4 °C and 100% relative humidity and blotting was done for 3 s with no drain or wait time. Frozen cryo-EM grids were imaged on a TFS 300 kV Titan Krios at the Dubochet Center for Imaging EPFL (Lausanne, Switzerland). Images were collected on Falcon IV direct detection camera in counting mode using the EPU and AFIS data collection scheme with a magnification of ×96,000 and a total dose of 60 electrons per square angstrom (e^−/Å^2) for each exposure, and defocus ranging from −0.4 to −0.9 μm. In total, 7,638 videos were produced in EER format at a pixel size of 0.8 Å per pixel.
RELION v.4.0.1 (ref. [46]) was used for processing, unless otherwise specified. For motion correction, RELION’s implementation of MotionCor2 with 4×4 patches and for initial contrast transfer function (CTF) estimation CTFFIND v.4.1.14 (ref. [47]) was used. From 7,638 micrographs, 611,189 particles were picked using crYOLO v.1.8.04b47 with a general model. Then 562,816 ribosome-like particles were selected after two-dimensional classification and extracted at three times decimated pixel size (2.4 Å per pixel) (Supplementary Fig. 1b,c). An initial three-dimensional (3D) refinement was done using a E. coli 70S reference map (EMD-12573)[30]. […]

Test [2] has as its system EF-G-dependent translocation on the ribosome. The test can be described thus: Translocation assay (toeprinting, MFKAFK template). The test is classed as biochemical. Conditions: EF-G present; tRNAfMet in P-site, N-AcPhe-tRNAPhe in A-site; in duplicate. As for the experimental part: Translocation assays were performed as previously described[22] using the MFKAFK template[45] (Supplementary Table 2). Reactions were prepared by incubating tight-coupled ribosomes (0.7 µM) with mRNA (0.5 µM) and tRNAi^Met (1 µM) for 20 min at 37 °C in the Pure System Buffer (5 mM potassium phosphate (pH 7.3), 9 mM Mg(OAc)2, 95 mM potassium glutamate, 5 mM NH4Cl, 0.5 mM CaCl2, 1 mM spermidine, 8 mM putrescine and 1 mM dithiothreitol) and for additional 10 min at 37 °C with 2 μM of N-acetyl-Phe-tRNA^Phe. At the time of N-acetyl-Phe-tRNA^Phe addition, the reactions were supplemented with PamB2 or negamycin as specified. The translocation reaction was initiated by addition of 1 µl of EF-G–GTP mixture (1.2 µM and 3.2 mM). After 5 min of incubation at 30 °C, 2 µl of reverse transcriptase and/or dNTPs mixture was added. The reactions were stopped after another 5 min at 30 °C by addition of 200 µl of the stop buffer and subsequent phenol extraction. The obtained complementary DNA was precipitated in ethanol for subsequent gel electrophoresis.

Test [3] deals with Escherichia coli in vitro translation. Particulars: E. coli in vitro translation, cited from earlier work. The text has this: The accordance of structural features of paenilamicins with the translation inhibitor edeine (Extended Data Fig. 1c) led to the hypothesis that paenilamicins may also exert their antimicrobial activity by binding to the ribosome and inhibiting protein synthesis. […] The best understood context-specific translation inhibitors are those that target the large subunit, where their inhibitory action is influenced by the sequence of the nascent polypeptide chain being synthesized, for example, macrolides and ketolides[30]–[32] ...

Entries after “also recorded” stand apart in the source; their conditions may differ.

On to paenilamicin B2 [PamB2], for which, in test [1] (ErmBL mRNA), the “inhibition when Phe-tRNA (ms2i6A37) decodes UUC in the A-site” value is given as “no inhibition” and the “inhibition when tRNALeu (ms2i6A37) decodes UUG in the A-site” value is recorded as “not inhibited”. Further, the “translation through stretches of UUG codons” value in test [1] (ErmBL mRNA with 1–5 UUG repeats) is recorded as “ribosomes can translate through stretches of up to five UUG codons unhindered”. For the same substance, the “ribosome stalling at serine codon UCA” value in test [1] (ErmBL-(UUG)4 mRNA, seventh codon UCA, tRNASer with ms2i6A37) is “only weak stalling”. In addition, in test [1] (ErmBL-(UUG)4 mRNA, seventh codon UCC, tRNASer lacking A37 modification), the “ribosome stalling at serine codon UCC” value is given as “strong stalling”. In addition, the “ribosome stalling at serine codon UCG” value in test [1] (ErmBL-(UUG)4 mRNA, seventh codon UCG, tRNASer with ms2i6A37) is on record as “only weak stalling”. In addition, the “ribosome stalling at serine codon UCU” value in test [1] (ErmBL-(UUG)4 mRNA, seventh codon UCU, tRNASer lacking A37 modification) is “strong stalling”. For the same substance, the “ribosome stalling at subsequent sites, ErmBL mRNA” value in test [1] (fourth UUC (Phe) in the P-site) is on record as “a subset of ribosomes also become stalled”. Further, the “accumulation of ribosomes on AUG start codon, wildtype (1×UUG) ErmBL mRNA” value in test [1] (mupirocin present, in duplicate) was “did not lead to a strong accumulation of ribosomes on the AUG start codon”. Moreover, the “ribosome stalling, wildtype (1×UUG) ErmBL mRNA” value in test [1] (mupirocin present, second codon UUG in the P-site) is recorded as “ribosomes became stalled only once the second ermBL codon (UUG) moved into the P-site”. Moreover, the “ribosome stalling at subsequent sites, ErmBL mRNA” value in test [1] (third GUA codon in the P-site) is “not the third GUA codon in the P-site”. Besides, the “binding to elongating ribosomes (density)” value with E. coli 70S ribosome (A- and P-site tRNAs (nonrotated) or A/P- and P/E-hybrid tRNAs (rotated), 2.2-2.3 Å) was “additional density located between the A- and P-site tRNAs that could be unambiguously assigned to PamB2; also recorded: binds stably to the small subunit of elongating ribosomes containing A- and P-site transfer RNAs (tRNAs)”. Moreover, in the test on E. coli 70S ribosome (P-site tRNA only, 2.4 Å), the “binding to initiating ribosomes (density)” value was “No density for PamB2 was evident; also recorded: not to initiating ribosomes bearing only a P-site tRNA”. Besides, the “peptide bond formation in PamB2-bound elongation complexes” value with E. coli 70S ribosome (additional density on CCA-end of A-site and A/P-tRNA) is given as “peptide bond formation has already occurred”. In addition, in the test on E. coli 70S ribosome (cryo-EM), the “binding site on the ribosome” value was “located predominantly on the 30S subunit of the 70S ribosome, where it inserts into the cleft between the A- and P-site tRNAs”. In test [2], the “EF-G dependent translocation (toeprint shift)” value is reported as “little to no shift in the toeprint band”. For the same substance, in test [3], the “inhibition of in vitro translation / protein synthesis (in words)” value is on record as “potent inhibitor of protein synthesis”. Further, in test [3] (read-out: half-inhibitory concentration (IC50)), the IC50 is 0.4 µM.

Source of the values: publication PMC11581978, “Paenilamicins are context-specific translocation inhibitors of protein synthesis” (Nature Chemical Biology, 2024).
